From a melting point compilation (Tetko et al.; mined from patent text by program, amines drawn as free bases though some values may be those of a salt) come the findings set out here.

In general, melting point refers to the temperature, or range, at which the solid turns liquid.

`Cc1ccc(-c2cncnc2N)cc1`: the melting point lay in the range of 166 to 167 °C.
In turn, `CC(=O)Nc1cc(Cl)cc(Cl)c1` yielded a melting point of 182 °C.
The compound `CCc1nn2ccccc2c1[N+](=O)[O-]` returned a melting point of 118 to 121 °C.
`CS(=O)(=O)c1ccc2c(c1)C(=O)CC1(CCN(C(=O)c3ccccc3)CC1)O2` came in with a melting point of 155 to 157 °C.
As for `C=CCOc1cccc2nn(C)c(S(N)(=O)=O)c12`, the melting point lay in the range of 143 to 144 °C.
`CSc1ccc(-c2n[nH]c(=O)cc2-c2ccccc2)cc1` registered a melting point of 186 °C.
`CCCCC(CC(=O)Nc1cc(C(N)=O)ccc1C(C)(C)C)c1ccc(OC)cc1OC` (stereo unspecified) had a melting point of 186 to 188 °C.
As for `Cn1cc(C(F)(F)F)c(C(=O)O)c1F`, the melting point was in the range of 190 to 191 °C.
Consider `O=C(Nc1cccc(-c2nnn[nH]2)c1)C(=O)N1CCC(Cc2ccc(F)cc2)CC1`, for which the melting point was in the range of 107 to 112 °C.
In turn, `CC(COc1ccc(CC2SC(=O)N(C(c3ccccc3)(c3ccccc3)c3ccccc3)C2=O)cc1)NC(=O)OC(C)(C)C` (stereo unspecified) yielded a melting point of 153 to 157 °C.
Consider `Cc1ncccc1Oc1ccc(NC(=O)C=Cc2ccccc2Cl)cn1`, for which the melting point fell in the range of 187 to 189 °C.
For `NS(=O)(=O)NC[C@H]1COc2cc(Cl)ccc2O1`, the melting point was 99 to 100 °C.
Regarding `Clc1cnc(Oc2cccc(C=C(Br)Br)c2)nc1`, the melting point worked out at 68 °C.
`NNC(=O)c1cc2c(Oc3ccc(Cl)cc3)cncc2s1` returned a melting point of 197 to 199 °C.
As to `Cc1cc(SCc2sc(-c3ccc(C(F)(F)F)cc3)nc2C)c2c(c1OCC(=O)O)CCC2`, the melting point stood at 184 °C.
To `Nc1nc2[nH]c(=S)sc2c(=O)[nH]1` belongs greater than 300 °C; to `NC(=O)c1ccc(-c2nc(O)c3c(n2)CCC3)cc1`, 201 °C; to `O=C1NC(=O)C(=Cc2ccc(N3CCC4(CC3)OCCO4)c(F)c2)S1`, 159 to 160 °C.
Compound `CN1C(=O)CC[C@]2(C)c3ccc(-c4cccc5ncccc45)cc3CC[C@@H]12` came in with a melting point of 100 to 104 °C.
For `CCCc1c2nc(C(=O)O)cc(Cl)c2cc2c(=O)cc(C(=O)O)oc12`, the melting point is 336 to 338 °C.
In turn, `O[C@H]1CC[C@H](n2cnc(-c3ccc(F)cc3)c2-c2ccnc(Oc3ccccc3)n2)CC1` displayed a melting point of 212 to 215 °C.
With `O=c1ccc2c(-c3ccccc3)cc(N3CCN(Cc4ccccc4)CC3)n2cc1`, the melting point came to 157 °C.
On to `N#Cc1ccc2[nH]cc([C@H]3CC[C@@H](N4CC(Oc5cccc(F)c5)C4)CC3)c2c1`, for which the melting point lay in the range of 187 to 190 °C.
The compound `CC(=O)N1CCN(c2ccc(NS(C)(=O)=O)cc2)CC1` returned a melting point of 165 to 167 °C.
In turn, `COc1ccc(C(=O)N[C@@H](Cc2c[nH]c3ccccc23)C(=O)O)cc1` yielded a melting point of 63 to 65 °C.
Turning to `O=C1NC2CCCC1NC2=O`, the melting point lay within 280 to 283 °C.
As for `CCC(=O)Nc1c([N+](=O)[O-])cnn1-c1ccc(Cl)c(Cl)c1Cl`, the melting point fell in the range of 79 to 81 °C.
In turn, `CCc1c[nH]c(C2Cc3ccccc3N2C(=O)Nc2ccccc2[N+](=O)[O-])n1` (stereo unspecified) had a melting point of 208 to 209 °C.
The compound `C=CCc1c2n(c3ccccc13)C(=O)C(Cc1nc[nH]c1C)CC2` (stereo unspecified) had a melting point of 215 to 217 °C.
In turn, `CC(C)c1ccc(S(=O)(=O)c2ccccc2)c(C(C)C)c1` showed a melting point of 105 to 107 °C.
To `Cc1ccc2nc(N3CCNCC3)c(=O)n(-c3ccccc3)c2c1` belongs 166 to 168 °C; to `CCCc1c(OCCC(C)(C)C(=O)NCCCCc2cccnc2)ccc(C(C)=O)c1O`, 80 to 83 °C; to `O=C1CCc2c1sc1c2CCCC1`, 43 to 44 °C.
`O=C(O)C(Cl)(Cl)CCCCCCCCCCc1ccccc1` showed a melting point of 157 to 159 °C.
`O=C(Cc1cccc2ccccc12)N1CCC(c2nccc3occc23)CC1` came in with a melting point of 50 °C.
With `O=C=Nc1ccc(-c2n[nH]c3c2Cc2ccccc2-3)cc1`, the melting point lay in the range of 338 to 339 °C.
Compound `Cc1c2c3c(ccc2nn1C)CCC3=O` yielded a melting point of 157 to 159 °C.
The compound `O=C1CCN(Cc2cnc(Nc3n[nH]c4ccc(-c5ncccc5Cl)cc34)s2)CC1` had a melting point of 187 to 188 °C.
`Nc1ncnc2c1c(-c1ccc(Oc3ccccc3)cc1)nn2C1CCC2(CC1)OCCO2` registered a melting point of 200 to 202 °C.
For `O=C(NC1N=C(c2ccccc2F)c2ccccc2N(CC(=O)N2CC3CCC(CC3)C2)C1=O)c1cccc(O)c1` (racemic) the value was greater than 250 °C; for `COc1cc2c(cc1Nc1ncc(Cl)c(N[C@H]3[C@@H](C(N)=O)[C@@H]4C=C[C@H]3C4)n1)CCN(CC(=O)N1CCOCC1)CC2`, 163 °C; for `Cc1nn(C)c2c1c(=O)n(-c1ccccc1)c1ncccc21`, greater than 300 °C.
Consider `Cc1ccc2c(C3CCN(CC#N)CC3)cn(-c3ccc(F)cc3)c2c1`, for which the melting point was 101 to 103 °C.
Turning to `CC(C)(C)c1ccc(CBr)cc1NC(=O)CC1c2ccccc2Oc2ccccc21`, the melting point was 229 to 231 °C.
For the compound `COCC(C)N(C(=O)N(CCCl)N=O)C1(O)C(O)C(CO)OC(OCC(C)C)C1O` (stereo unspecified), the melting point lay in the range of 66 to 68 °C.
Take `O=C(NC(c1ccccc1)c1cc2ccncc2[nH]1)c1cccnc1` (stereo unspecified): the melting point was in the range of 178 to 188 °C.
The compound `Cc1nc(-c2cn(Cc3ccc(C(F)(F)F)cc3)nn2)sc1C(=O)NCc1cccnc1` registered a melting point of 204 to 205 °C.
`OC(CNC12N=CN=CC1=NC=N2)CN1CCN(C(c2ccc(F)cc2)c2ccc(F)cc2)CC1` (stereo unspecified) registered a melting point of 140 to 170 °C.
Regarding `Cc1cc(C2=NN(C3=NNC(=O)CS3)[C@H](C)Cc3cc4c(cc32)OCO4)ccc1[N+](=O)[O-]`, the melting point was 207 to 211 °C.
For `COc1ccc(Sc2[nH]cc(C(=O)O)c2Sc2ccc(OC)cc2)cc1` the value was 159 to 162 °C; for `COc1ccc(C(OC(C)=O)c2sccc2C=O)cc1OC` (stereo unspecified), 91 to 92 °C.
As to `CC(=O)Oc1cn(C(C)=O)c2ccc(F)c(Cl)c12`, the melting point was 168 to 169 °C.
With `COC(=O)Cc1cccc(NCCCBr)c1`, the melting point lay within 129 to 130 °C.
In turn, `O=C(NCCCCCCNC(=O)c1ccc(Oc2ccccc2)cc1)c1ccc(Oc2ccccc2)cc1` registered a melting point of 183 to 184 °C.
Regarding `Nc1nc(C(F)(F)F)c(CN2C(=O)C3(COc4cc5c(cc43)OCO5)c3ccccc32)s1` (stereo unspecified), the melting point lay in the range of 165 to 167 °C.
For `CCOC(=O)C1=C(C)NC(N)=C(C(=O)OC(C)C)C1c1ccccc1C#N` (stereo unspecified) the value was 200 °C; for `CCc1cccc2[nH]c(C(=O)O)cc(=O)c12`, 272 to 273 °C; for `N#CCc1nnc2n1-c1ccc(Cl)cc1C(c1ccccc1)=NC2`, 198 to 201 °C.
For `Cn1cc(C2=C(c3ccncc3)C(=O)OC2=O)c2ccccc21` the value was 217 to 219 °C; for `Cc1nnc(-c2cnc3occ(-c4ccc(S(C)(=O)=O)cc4)c3c2)o1`, 251 to 252 °C; for `CCCC(=O)c1cnc2c(C)cccc2c1Nc1c(C)cccc1C`, 100 to 101 °C.
Compound `CC1(COc2cccc(-c3noc4ccsc34)c2)CO1` (stereo unspecified) showed a melting point of 84 to 85 °C.
Regarding `O=C(c1cccs1)c1cnn2c(-c3cccc(OC4CCCC4)c3)ccnc12`, the melting point lay in the range of 135 to 138 °C.
In the case of `O=C(O)/C=C/c1cnoc1-c1ccccc1`, the melting point lay in the range of 197 to 199 °C.
Turning to `CC(O)C1CCC2C3CC=C4CC(O)CC(O)C4(C)C3CCC12C` (stereo unspecified), the melting point was 235 to 237 °C.
To `COc1ccc(OC)c(-c2c(C(C)C)cc(C(C)C)cc2C(C)C)c1I` belongs 189 to 191 °C.
On to `Clc1cnc(SCI)nc1`, for which the melting point was 67 °C.
As for `CC(C)(C)NCC(O)c1cc(O)ccc1Cl` (stereo unspecified), the melting point was in the range of 162 to 163 °C.
To `Cc1ccc(C(=O)c2ccc(O)cc2)cc1O` belongs 174 to 175 °C; to `FC(F)(F)c1ccccc1OCCCc1cn(C(c2ccccc2)(c2ccccc2)c2ccccc2)cn1`, 204 to 208 °C.
To `CCNc1cccc2c1OC1(CC1)C2=O` belongs 80.6 °C; to `O=C(O)c1ccc(NCCc2ccccc2)cc1`, 123 to 125 °C; to `C=CCc1c2nc(C(=O)OC)cc(Cl)c2cc2c(=O)cc(C(=O)OCC)oc12`, 197 to 198 °C.
Take `CC(=C1SCSCS1)c1ccc(OCCCN2CCOCC2)cc1`: the melting point was in the range of 95 to 98 °C.
With `COc1cccn2c(=O)c(CCN3CCc4oc5ccccc5c4C3)c(C)nc12`, the melting point came to 151 °C.
In turn, `CCOC(=O)C1=C(COCCO)NC(C)=C(C(=O)OC)C1c1cccc(Cl)c1Cl` (stereo unspecified) had a melting point of 120 to 121 °C.
Consider `CCOC(=O)C1(C(=O)OCC)C(CC)CC(O)N1C(C)=O` (stereo unspecified), for which the melting point lay within 106 to 109 °C.
`CCc1nnc(NC(=O)C2c3ccccc3Oc3ccccc32)o1` gave a melting point of 256 to 257 °C.
Consider `CN1CCN(c2cccc3c2C[C@H](NC(=O)Cc2ccccc2)CC3)CC1`, for which the melting point lay in the range of 151 to 152 °C.
Take `O=S1(=O)c2cccc3cccc(c23)N1CCCN1CCC(CC2CCc3ccccc32)CC1` (stereo unspecified): the melting point is 183 °C.
To `CC=C(Cc1ccccc1)NNC(=O)OC(C)(C)C` belongs 76 to 79 °C.
To `C[C@@H]1CCCN1CCc1ccc2cc(-c3ccc(C#N)cc3)ccc2n1` belongs 164 °C; to `Nc1ncc(-c2ccccc2)nc1Sc1ccccc1`, 109 to 112 °C.
With `Cc1c(-c2ccccc2)n(Cc2ccccc2)c2ccc(Br)cc12`, the melting point was 113 to 116 °C.
`CCOC(=O)c1c(C)[nH]c2ccc(OC[C@@H](O)CN)cc12`: the melting point was 66 to 68 °C.
As to `Oc1nc2cc(Cl)ccc2n2cnnc12`, the melting point is greater than 300 °C.
Regarding `Nc1nc(Cc2ccccc2)ncc1C=S`, the melting point lay within 136 to 139 °C.
In turn, `CC1(N)CN(c2c(F)cc3c(=O)c(C(=O)O)cn(C4CC4)c3c2F)C1` registered a melting point of 298 to 300 °C.
Take `CCCc1c2c(c([N+](=O)[O-])c3c(=O)cc(C(=O)OCC)oc13)CC(C(=O)OCC)CC2` (stereo unspecified): the melting point was 164 to 166 °C.
Take `CCc1nc(=O)[nH]c2cc(OC)c(OC)cc12`: the melting point fell in the range of 263 to 265 °C.
`CNS(=O)(=O)c1ccc(Cl)c(C)c1Cl` registered a melting point of 118 °C.
